Experimental data from US20090239860A1, “NOVEL BENZOFURAN DERIVATIVE, MEDICINAL COMPOSITION CONTAINING THE SAME, AND USES OF THESE” (priority 2004, published 2009).

tested on: Haloperidol-induced catalepsy in rats; test: Haloperidol-induced catalepsy in rats (horizontal bar test); format: in vivo, rat; details: male rats; compound 10 mg/kg orally in PEG400 2 hours before measurement; 5 hours after 1 mg/kg i.p. haloperidol; maximum 180 seconds (control 180.0)
Procedure: Haloperidol-Induced Catalepsy in Rats
The effect of a compound on drug-induced catalepsy in rats was evaluated. Parkinson's disease is a movement disorder reflecting a decline in striatal dopamine due to the degeneration of dopaminergic neuron arising from the sbstantia nigra. When haloperidol, a blocker of dopamine D2 receptor is administered in rats, the drug induces catalepsy which is considered as one of the Parkinson's disease-like symptoms since haloperidol blocks the neurotransmission of dopaminergic neuron. Male rats (Crj: CD(SD)IGS, bodyweight: 210-260 g, Charles River Japan, Inc.) were used for the experiments. Three to five rats for each group were tested for catalepsy 5 hours after intraperitoneal administration of 1 mg/kg haloperidol (Serenace (registered mark); Dainippon Pharma), a dopamine D2 antagonist. Catalepsy was measured using the horizontal bar test (Morelli and Chiara, “Eur. J. Pharmacol.”, vol. 117, p. 179-185 (1985)). A compound (10 mg/kg) was dissolved in PEG400 and administered orally 2 hours prior to the measurement of catalepsy. PEG400 was also administered orally to the rats for the control group. The front feet of the rats were placed on a horizontal bar (3 mm in diameter) suspended 10-12 cm above a platform and their rear feet were placed on the platform. The degree of catalepsy produced in the rats was measured by how long it took for their front feet to remove themselves from the bar. A maximum of 180 seconds was allowed.

Compound	Duration of catalepsy [s]
NC(=O)c1oc2ccc(Cl)cc2c1NC(=O)C1CC1 [Compound 1-2, 3-Cyclopropanecarbonylamino-5-chlorobenzofuran-2-carboxamide]	91.6
COc1ccc2c(NC(=O)c3ccc(F)cc3)c(C(N)=O)oc2c1 [Compound 1-16]	116.4
CCc1ccc(C(=O)Nc2c(C(N)=O)oc3ccc(F)cc23)o1 [Compound 1-121]	48.2
NC(=O)c1oc2c(F)cc(F)cc2c1NC(=O)C1CC1 [Compound 1-155]	38.3

target: T1, human adenosine A2A receptor (Homo sapiens, UniProt P29274); test: Measurement of antagonistic action for human adenosine A2A receptor (inhibition of NECA-induced cAMP production in transfected CHO-K1 cells); format: cell-based; details: human adenosine A2A receptor-expressed CHO-K1 cells, Ki from IC50 and Km for NECA
T1 construct: expressed in transfected cells; host or cells: CHO-K1 (Chinese hamster ovary-K1), transient transfection with Lipofectamine 2000
T1 sequence (P29274 whole entry): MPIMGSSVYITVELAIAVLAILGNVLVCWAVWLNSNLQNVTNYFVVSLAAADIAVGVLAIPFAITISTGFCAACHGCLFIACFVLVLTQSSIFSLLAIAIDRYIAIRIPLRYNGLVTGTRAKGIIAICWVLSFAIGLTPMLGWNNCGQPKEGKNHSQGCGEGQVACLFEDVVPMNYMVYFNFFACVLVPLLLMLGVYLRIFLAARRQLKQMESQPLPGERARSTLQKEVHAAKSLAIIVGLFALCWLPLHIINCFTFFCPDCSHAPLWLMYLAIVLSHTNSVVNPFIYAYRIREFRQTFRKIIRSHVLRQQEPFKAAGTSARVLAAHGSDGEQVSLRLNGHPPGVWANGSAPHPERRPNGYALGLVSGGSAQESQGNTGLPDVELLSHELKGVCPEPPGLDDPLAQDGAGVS
Procedure: Measurement of Antagonistic Action for Human Adenosine A2a Receptor
1) Preparation of Human Adenosine A2a Receptor-Expressed Cells
When Chinese hamster ovary-K1 (CHO-K1) cells were grown to subconfluence, they were treated with trypsin and suspended in D-MEM/F-12 medium (Invitrogen) including 10% fetal bovine serum (Sankojunyaku). The expression vector of human adenosine A2A receptor prepared in OPTI-MEM I (Invitrogen) and the transfection reagent of Lipofectamine 2000 (Invitrogen) were added to the cell suspension, and those cells were inoculated in poly-D-lysine-coated 96-well plates (5×10^4 cells/well). After incubating the plates for 24-30 hours at 37° C. in a humidified atmosphere with 5% CO2, they were used for the subsequent assays.
2) Measurement of the Inhibitory Effect on Human Adenosine A2a Receptor Activity
A test compound was dissolved in dimethyl sulfoxide (DMSO) and the resulting solution was added to D-MEM/F-12 medium supplemented with 2.5 unit/mL adenosine deaminase (Carbiochem) and 30 μM rolipram (Sigma), a phosphodiesterase inhibitor to prepare a solution of the test compound. Adenosine deaminase was used for the inactivation of adenosine derived from the cells.
The human adenosine A2A-expressed cells inoculated in the 96-well plates were washed twice with 150 μL/well of D-MEM/F-12 medium and a 50-μL aliquot of the test compound solution was then added to each well of the plates. After incubating the cells for 10 minutes at 37° C. in a humidified atmosphere with 5% CO2, a 50-μL aliquot of 1.2 nM 5′-N-ethylcarboxyamideadenosine (NECA; Sigma) including 2.5 unit/mL adenosine deaminase and 30 μM rolipram was added to each well of the plates and incubated for 25 minutes at 37° C. in a humidified atmosphere with 5% CO2. Stopping the reaction and the subsequent measurement of cAMP were performed by use of a cAMP enzyme-linked immunosorbent assay kit (Applied Biosystem). The chemoluminescence was measured by a Microplate Luminometer TR717 (Applied Biosystem). The experiments were carried out in duplicate wells.
Inhibitory rate of a test compound for NECA-induced cAMP production was found by the following formula:
Inhibitory rate (%)=[1−{(cAMP level with a test compound and NECA)−(cAMP level without a test compound and NECA)}/{(cAMP level with NECA)−(cAMP level without a test compound and NECA)}]×100
Using a Km value for NECA found by the measurement in the same plate as that of test compounds, an inhibitory constant Ki was found by the following formula: […]

Ki [nM]	Compound
8.5	NC(=O)c1oc2ccc(F)cc2c1NC(=O)C1CC1 [Compound 1-1, 3-Cyclopropanecarbonylamino-5-fluorobenzofuran-2-carboxamide]
4.1	NC(=O)c1oc2ccc(Cl)cc2c1NC(=O)C1CC1 [Compound 1-2, 3-Cyclopropanecarbonylamino-5-chlorobenzofuran-2-carboxamide]
6.5	COc1ccc2c(NC(=O)c3cccc(F)c3)c(C(N)=O)oc2c1 [Compound 1-15]
0.9	COc1ccc2c(NC(=O)c3ccc(F)cc3)c(C(N)=O)oc2c1 [Compound 1-16]
6.4	Cc1cccc(C(=O)Nc2c(C(N)=O)oc3ccc(F)cc23)c1 [Compound 1-36]
6.5	NC(=O)c1oc2cc(F)ccc2c1NC(=O)c1ccc2c(c1)OCO2 [Compound 1-91]
9.3	NC(=O)c1oc2ccc(Cl)cc2c1NC(=O)c1ccco1 [Compound 1-108]
2.7	NC(=O)c1oc2c(F)cc(F)cc2c1NC(=O)c1ccco1 [Compound 1-109]
1.9	Cc1ccc(C(=O)Nc2c(C(N)=O)oc3c(F)cc(F)cc23)o1 [Compound 1-119]
0.8	CCc1ccc(C(=O)Nc2c(C(N)=O)oc3ccc(F)cc23)o1 [Compound 1-121]
1.2	CCc1ccc(C(=O)Nc2c(C(N)=O)oc3c(F)cc(F)cc23)o1 [Compound 1-125]
3.2	COc1ccc2c(NC(=O)c3ccc(-c4ccccc4)o3)c(C(N)=O)oc2c1 [Compound 1-133]
4.5	NC(=O)c1oc2cc(F)ccc2c1NC(=O)c1ccc(Oc2ccccc2)nc1 [Compound 1-138]
9.3	COCC(=O)Nc1c(C(N)=O)oc2cc(OC)ccc12 [Compound 1-141]
2.7	NC(=O)c1oc2ccc(F)cc2c1NC(=O)COc1ccc(Cl)cc1 [Compound 1-145]
2.2	NC(=O)c1oc2ccc(F)cc2c1NC(=O)COCc1ccccc1 [Compound 1-150]
9.2	NC(=O)c1oc2cc(Cl)ccc2c1NC(=O)C1CC1 [Compound 1-153]
8.1	NC(=O)c1oc2c(F)cc(F)cc2c1NC(=O)C1CC1 [Compound 1-155]
9.8	NC(=O)c1oc2c(Cl)cc(F)cc2c1NC(=O)C1CC1 [Compound 1-156]
3.3	COc1cc(F)cc2c(NC(=O)C3CC3)c(C(N)=O)oc12 [Compound 1-159]
7	NC(=O)c1oc2c(F)cc(F)cc2c1NC(=O)C1CCC1 [Compound 1-161]
2.1	COc1ccc(C(=O)Nc2c(C(N)=O)oc3c(OC)cc(F)cc23)cc1 [Compound 1-213]
4.6	NC(=O)c1oc2c(F)cc(F)cc2c1NC(=O)Cc1ccccc1 [Compound 1-249]
0.5	CN1CCN(C(=O)c2cccc(C(=O)Nc3c(C(N)=O)oc4c(F)cc(F)cc34)c2)CC1 [Compound 1-275]
8	COc1ccc2c(NC(=O)c3cccc(CN4CCN(c5ccccc5)CC4)c3)c(C(N)=O)oc2c1 [Compound 2-1, 6-Methoxy-3-[3-(4-phenylpiperazin-1-ylmethyl)benzoylamino]-benzofuran-2-carboxamide]
8.6	COc1ccc2c(NC(=O)c3ccc(CSc4nccn4C)cc3)c(C(N)=O)oc2c1 [Compound 2-7]
1.6	NC(=O)c1oc2c(F)cc(F)cc2c1NC(=O)c1ccc(CN2CCN(Cc3ccccc3)CC2)o1 [Compound 2-129]
2	NC(=O)c1oc2c(F)cc(F)cc2c1NC(=O)c1ccc(CN2CCN(Cc3ccc4c(c3)OCO4)CC2)o1 [Compound 2-138]
2	CC(C)(C)OC(=O)N1CCN(Cc2ccc(C(=O)Nc3c(C(N)=O)oc4c(F)cc(F)cc34)o2)CC1 [Compound 2-142, tert-butyl 4-[5-(2-carbamoyl-5,7-difluoro-benzofuran-3-ylcarbamoyl)furan-2-ylmethyl]piperazine-1-carboxylate]
1.1	CC(O)c1ccc(C(=O)Nc2c(C(N)=O)oc3ccc(F)cc23)o1 (stereo not shown) [Compound 6-2, 5-Fluoro-3-[5-(1-hydroxyethyl)furan-2-carbonyl]-aminobenzofuran-2-carboxamide]
